Experiments:
[1] = target: T1, D-amino-acid oxidase (Homo sapiens, UniProt P14920); test: Inhibition of human recombinant DAAO after 30 mins by plate reader analysis
[2] = tested on: HEK293; test: Cytotoxicity against HEK293 cells overexpressing human full length DAAO by Alamar Blue assay; type: cell-based
[3] = target: D-amino-acid oxidase (Rattus norvegicus, UniProt O35078)
Description: Inhibition of rat full length DAAO overexpressed in HEK293 cells after 30 mins by plate reader analysis

[4] = target: D-amino-acid oxidase (Mus musculus, UniProt P18894)
Description: Inhibition of mouse full length DAAO overexpressed in HEK293 cells after 30 mins by plate reader analysis

[5] = Plasma concentration in ddY mouse at 30 mg/kg, po after 30 mins by LC-MS/MS analysis; type: ADME, organism-based; parameters: dose 30 mg/kg, route oral
[6] = Drug uptake in ddY mouse brain at 30 mg/kg, po after 30 mins by LC-MS/MS analysis; type: ADME, organism-based; parameters: dose 30 mg/kg, route oral; conditions: read-out: Drug uptake
[7] = Effective permeability of the compound at pH 6.5 after 2 hrs by PAMPA; type: ADME; conditions: read-out: Peff
[8] = target: T1, D-amino-acid oxidase
Description: Inhibition of DAAO (unknown origin) by cell based assay

[9] = target: T1, D-amino-acid oxidase; remark: listed apart in the source
Description: Inhibition of human full length DAAO overexpressed in HEK293 cells after 30 mins by plate reader analysis

D-amino-acid oxidase (Mus musculus, UniProt P18894), sequence (P18894 whole entry): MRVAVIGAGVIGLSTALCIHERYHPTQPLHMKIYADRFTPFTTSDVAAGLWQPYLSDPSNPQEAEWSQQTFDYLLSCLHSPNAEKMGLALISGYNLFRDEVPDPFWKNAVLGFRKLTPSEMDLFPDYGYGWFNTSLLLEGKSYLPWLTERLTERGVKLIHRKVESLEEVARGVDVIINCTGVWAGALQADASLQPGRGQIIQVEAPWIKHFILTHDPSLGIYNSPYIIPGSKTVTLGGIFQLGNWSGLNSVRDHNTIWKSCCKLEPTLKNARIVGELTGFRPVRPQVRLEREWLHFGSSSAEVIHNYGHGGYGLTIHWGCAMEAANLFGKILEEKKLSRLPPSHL
T1 sequence (P14920 whole entry): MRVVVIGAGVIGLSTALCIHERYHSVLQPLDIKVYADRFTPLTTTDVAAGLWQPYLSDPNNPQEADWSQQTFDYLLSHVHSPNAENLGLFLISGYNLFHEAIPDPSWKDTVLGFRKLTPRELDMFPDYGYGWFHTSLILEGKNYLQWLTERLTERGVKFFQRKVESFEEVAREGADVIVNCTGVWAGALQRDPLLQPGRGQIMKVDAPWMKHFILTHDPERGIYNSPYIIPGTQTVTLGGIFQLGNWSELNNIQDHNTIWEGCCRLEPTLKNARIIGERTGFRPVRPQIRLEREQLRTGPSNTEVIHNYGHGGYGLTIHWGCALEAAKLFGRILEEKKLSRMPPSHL
D-amino-acid oxidase (Rattus norvegicus, UniProt O35078), sequence (O35078 whole entry): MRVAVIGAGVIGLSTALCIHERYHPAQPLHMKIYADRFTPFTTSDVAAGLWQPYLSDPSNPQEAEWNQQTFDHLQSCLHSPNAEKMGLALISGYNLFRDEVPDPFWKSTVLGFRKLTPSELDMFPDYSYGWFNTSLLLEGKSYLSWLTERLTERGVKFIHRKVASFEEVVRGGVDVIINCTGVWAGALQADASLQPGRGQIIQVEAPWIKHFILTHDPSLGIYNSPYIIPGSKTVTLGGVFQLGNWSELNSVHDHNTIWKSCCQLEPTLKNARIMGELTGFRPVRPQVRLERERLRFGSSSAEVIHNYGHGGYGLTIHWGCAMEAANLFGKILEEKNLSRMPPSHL

IC50 [3] [nM]	IC50 [4] [nM]	Structure (SMILES)	also measured
		Cc1c[nH]c(=O)c(O)c1	IC50 [1]: 140 nM; Activity [2]: Toxic
16	4.4	O=c1[nH]nc(CCc2cc(F)cc(F)c2)cc1O	concentration at 0.5 h [5]: 6.54 µg/mL; concentration at 0.5 h [6]: 0.46 µg/mL
4.6	3.3	O=c1[nH]nc(CCc2ccccc2)cc1O	
		O=C(O)c1cc2sccc2[nH]1	IC50 [1]: 1.4 nM; Papp at 2 h [7]: 8 nm/s; IC50 [8]: 147 nM
		Oc1cccnc1O	IC50 [1]: 1150 nM
1900	490	O=c1[nH]nc(CCc2cc(C(F)(F)F)cc(C(F)(F)F)c2)cc1O	
2.2	2.5	O=c1[nH]nc(CCc2ccc(F)cc2)cc1O	
1220	426	O=c1[nH]nc(CCCc2ccccc2)cc1O	
		O=c1[nH]c2ccccc2cc1O	Papp at 2 h [7]: 182 nm/s
2.6	1.9	O=c1[nH]nc(CCc2cccc(F)c2)cc1O	
6.5	4.6	O=c1cc(COc2ccccc2)[nH]nc1O	
> 1000	> 1000	O=c1[nH]nc(C2CCCCC2)cc1O	IC50 [1]: 300 nM; IC50 [9]: > 1000 nM
4.9	3.6	O=c1[nH]nc(CCc2ccccc2F)cc1O	
470	240	O=c1[nH]nc(/C=C/c2ccc(Cl)cc2)cc1O	IC50 [1]: 120 nM; IC50 [9]: 570 nM
		O=c1[nH]cc(Cl)cc1O	IC50 [1]: 47 nM; Papp at 2 h [7]: 64 nm/s; IC50 [8]: 930 nM
19	12	COc1cc(CCc2cc(O)c(=O)[nH]n2)cc(OC)c1	
3.8	3.6	COc1ccc(CCc2cc(O)c(=O)[nH]n2)cc1	
5.6	4.4	COc1cccc(CCc2cc(O)c(=O)[nH]n2)c1	
> 1000	> 1000	CC(C)(C)CCc1cc(O)c(=O)[nH]n1	IC50 [1]: 670 nM; IC50 [9]: > 1000 nM
5	5.9	O=c1[nH]nc(CCc2ccc(C(F)(F)F)cc2)cc1O [LUVADAXISTAT]	
8.2	3.2	O=c1[nH]nc(CCC2CCCCC2)cc1O	
41	7.1	O=c1[nH]nc(CCc2ccccc2C(F)(F)F)cc1O	
2.4	1.9	O=c1[nH]nc(CCc2ccc(Cl)cc2)cc1O	
3.1	2.8	CC(c1ccccc1)c1cc(O)c(=O)[nH]n1 (stereo not drawn)	
		O=c1[nH]cc(CCc2ccccc2)cc1O	Activity [2]: Toxic; Papp at 2 h [7]: > 300 nm/s

Reference: ChEMBL document CHEMBL2331290, “4-Hydroxypyridazin-3(2H)-one derivatives as novel D-amino acid oxidase inhibitors” (J Med Chem, 2013)
